In ChEMBL document CHEMBL1141384, “Discovery of a potent, selective, and orally active human epidermal growth factor receptor-2 sheddase inhibitor for the treatment of cancer” (J Med Chem, 2007):
The source made the active and inactive calls. The calls are words filed in the database; no cut-off is given here.

How the values were obtained:
[1] = molecular target: T1, Interstitial collagenase (Homo sapiens, UniProt P03956); test: Inhibition of MMP1
T1 sequence (P03956 whole entry): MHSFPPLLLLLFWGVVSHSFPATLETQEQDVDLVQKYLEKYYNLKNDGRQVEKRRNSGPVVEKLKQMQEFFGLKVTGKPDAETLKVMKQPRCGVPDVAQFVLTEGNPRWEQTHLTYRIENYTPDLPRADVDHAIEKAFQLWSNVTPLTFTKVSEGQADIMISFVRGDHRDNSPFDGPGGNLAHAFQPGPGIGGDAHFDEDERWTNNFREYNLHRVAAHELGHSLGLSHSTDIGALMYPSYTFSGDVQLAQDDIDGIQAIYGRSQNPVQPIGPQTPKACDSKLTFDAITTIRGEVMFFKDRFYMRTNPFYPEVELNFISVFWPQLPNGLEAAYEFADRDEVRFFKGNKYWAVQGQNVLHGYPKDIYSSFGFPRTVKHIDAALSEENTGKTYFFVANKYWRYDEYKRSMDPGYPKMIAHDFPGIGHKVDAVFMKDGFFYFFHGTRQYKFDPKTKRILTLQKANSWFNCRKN

[2] = Protein binding in murine plasma; assay type: ADME, organism-based; conditions: mouse, read-out: PPB (converted)
[3] = molecular target: Matrix metalloproteinase-9 (Homo sapiens, UniProt P14780); test: Inhibition of MMP9
Matrix metalloproteinase-9, sequence (P14780 whole entry): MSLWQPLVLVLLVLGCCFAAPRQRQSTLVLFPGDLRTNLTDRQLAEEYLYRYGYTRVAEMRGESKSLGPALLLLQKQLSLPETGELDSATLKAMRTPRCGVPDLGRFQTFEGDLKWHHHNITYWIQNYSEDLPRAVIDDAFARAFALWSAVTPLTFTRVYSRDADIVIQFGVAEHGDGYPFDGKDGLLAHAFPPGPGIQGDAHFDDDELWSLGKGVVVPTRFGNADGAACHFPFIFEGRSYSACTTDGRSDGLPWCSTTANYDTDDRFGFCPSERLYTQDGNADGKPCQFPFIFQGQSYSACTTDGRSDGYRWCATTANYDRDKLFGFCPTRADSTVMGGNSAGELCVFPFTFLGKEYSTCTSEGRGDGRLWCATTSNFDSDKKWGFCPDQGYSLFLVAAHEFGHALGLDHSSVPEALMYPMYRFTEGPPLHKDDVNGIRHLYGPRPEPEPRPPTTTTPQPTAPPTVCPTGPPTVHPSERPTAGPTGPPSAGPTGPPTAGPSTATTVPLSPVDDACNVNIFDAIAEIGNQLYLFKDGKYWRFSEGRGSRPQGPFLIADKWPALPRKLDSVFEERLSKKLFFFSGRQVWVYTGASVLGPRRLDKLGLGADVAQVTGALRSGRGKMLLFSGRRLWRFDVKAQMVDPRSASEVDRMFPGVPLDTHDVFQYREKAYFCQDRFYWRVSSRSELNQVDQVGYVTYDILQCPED

[4] = molecular target: Stromelysin-1 (Homo sapiens, UniProt P08254); test: Inhibition of MMP3
Stromelysin-1, sequence (P08254 whole entry): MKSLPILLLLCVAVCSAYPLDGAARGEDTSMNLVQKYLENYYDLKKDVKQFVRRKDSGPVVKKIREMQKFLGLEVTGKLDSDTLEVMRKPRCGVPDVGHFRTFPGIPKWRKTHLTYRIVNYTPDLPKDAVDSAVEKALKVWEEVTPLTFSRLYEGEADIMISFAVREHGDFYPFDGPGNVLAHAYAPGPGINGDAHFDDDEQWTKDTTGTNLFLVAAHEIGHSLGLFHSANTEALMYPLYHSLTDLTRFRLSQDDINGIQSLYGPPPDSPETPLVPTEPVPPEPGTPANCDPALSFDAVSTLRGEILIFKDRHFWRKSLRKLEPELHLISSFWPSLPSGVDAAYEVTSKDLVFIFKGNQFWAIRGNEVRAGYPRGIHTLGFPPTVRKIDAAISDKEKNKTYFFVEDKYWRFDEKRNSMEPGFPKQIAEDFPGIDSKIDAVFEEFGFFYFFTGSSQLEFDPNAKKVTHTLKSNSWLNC

[5] = molecular target: 72 kDa type IV collagenase (Homo sapiens, UniProt P08253); test: Inhibition of MMP2
72 kDa type IV collagenase, sequence (P08253 whole entry): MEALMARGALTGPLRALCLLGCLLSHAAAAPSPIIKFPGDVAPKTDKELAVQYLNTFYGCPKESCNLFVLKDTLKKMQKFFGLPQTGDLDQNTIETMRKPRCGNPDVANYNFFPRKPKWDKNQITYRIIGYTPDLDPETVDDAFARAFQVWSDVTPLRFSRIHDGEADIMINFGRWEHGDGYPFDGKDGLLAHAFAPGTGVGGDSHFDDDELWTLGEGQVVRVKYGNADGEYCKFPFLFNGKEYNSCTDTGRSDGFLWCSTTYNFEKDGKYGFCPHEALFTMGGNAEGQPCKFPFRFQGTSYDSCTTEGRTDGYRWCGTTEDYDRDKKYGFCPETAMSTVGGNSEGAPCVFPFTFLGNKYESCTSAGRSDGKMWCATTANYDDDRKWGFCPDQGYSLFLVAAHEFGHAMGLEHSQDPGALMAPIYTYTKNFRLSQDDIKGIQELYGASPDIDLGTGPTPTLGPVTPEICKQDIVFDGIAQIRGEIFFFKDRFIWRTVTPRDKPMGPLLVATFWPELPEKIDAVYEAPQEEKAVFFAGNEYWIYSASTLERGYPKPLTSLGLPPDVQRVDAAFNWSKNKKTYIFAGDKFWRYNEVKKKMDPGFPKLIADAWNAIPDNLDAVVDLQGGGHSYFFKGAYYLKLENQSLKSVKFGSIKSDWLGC

[6] = Cmax in murine at 10 mg/kg, po; assay type: ADME, organism-based; set-up: dose 10 mg/kg, route oral; conditions: mouse, in vivo
[7] = Clearance in murine; assay type: ADME, organism-based; conditions: mouse, in vivo
[8] = AUC (0-24h) in murine at 10 mg/kg, po; assay type: ADME, organism-based; set-up: time < 24 hr, dose 10 mg/kg, route oral; conditions: mouse, in vivo
[9] = molecular target: T2, Disintegrin and metalloproteinase domain-containing protein 10 (Homo sapiens, UniProt O14672); test: Inhibition of ADAM10
T2 sequence (O14672 whole entry): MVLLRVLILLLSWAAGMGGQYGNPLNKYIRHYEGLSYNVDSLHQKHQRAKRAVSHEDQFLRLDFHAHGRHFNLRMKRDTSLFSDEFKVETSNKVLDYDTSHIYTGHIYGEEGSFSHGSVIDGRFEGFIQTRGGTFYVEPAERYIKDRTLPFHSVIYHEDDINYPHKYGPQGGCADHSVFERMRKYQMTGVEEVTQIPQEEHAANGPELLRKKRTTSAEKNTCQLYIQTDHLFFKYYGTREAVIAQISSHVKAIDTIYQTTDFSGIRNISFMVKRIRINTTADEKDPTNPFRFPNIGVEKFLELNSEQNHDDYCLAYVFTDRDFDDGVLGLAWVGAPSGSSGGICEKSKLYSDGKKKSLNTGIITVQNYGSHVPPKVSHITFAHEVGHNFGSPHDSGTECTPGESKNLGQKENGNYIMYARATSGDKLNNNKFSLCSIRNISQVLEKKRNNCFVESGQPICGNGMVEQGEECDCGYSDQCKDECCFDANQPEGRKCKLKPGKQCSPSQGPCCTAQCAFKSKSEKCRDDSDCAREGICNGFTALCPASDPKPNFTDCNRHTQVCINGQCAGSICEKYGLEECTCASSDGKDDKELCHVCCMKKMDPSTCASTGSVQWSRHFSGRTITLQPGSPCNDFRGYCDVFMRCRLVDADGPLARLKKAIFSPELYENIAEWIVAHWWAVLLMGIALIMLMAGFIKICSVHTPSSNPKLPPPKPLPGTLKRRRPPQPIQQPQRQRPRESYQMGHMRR

[10] = molecular target: Receptor tyrosine-protein kinase erbB-2 (Homo sapiens) (UniProt P04626); test: Inhibition of Her2 sheddase activity in BT474 cell line; assay type: functional, cell-based; conditions: BT-474
Receptor tyrosine-protein kinase erbB-2 (Homo sapiens), sequence (P04626 whole entry): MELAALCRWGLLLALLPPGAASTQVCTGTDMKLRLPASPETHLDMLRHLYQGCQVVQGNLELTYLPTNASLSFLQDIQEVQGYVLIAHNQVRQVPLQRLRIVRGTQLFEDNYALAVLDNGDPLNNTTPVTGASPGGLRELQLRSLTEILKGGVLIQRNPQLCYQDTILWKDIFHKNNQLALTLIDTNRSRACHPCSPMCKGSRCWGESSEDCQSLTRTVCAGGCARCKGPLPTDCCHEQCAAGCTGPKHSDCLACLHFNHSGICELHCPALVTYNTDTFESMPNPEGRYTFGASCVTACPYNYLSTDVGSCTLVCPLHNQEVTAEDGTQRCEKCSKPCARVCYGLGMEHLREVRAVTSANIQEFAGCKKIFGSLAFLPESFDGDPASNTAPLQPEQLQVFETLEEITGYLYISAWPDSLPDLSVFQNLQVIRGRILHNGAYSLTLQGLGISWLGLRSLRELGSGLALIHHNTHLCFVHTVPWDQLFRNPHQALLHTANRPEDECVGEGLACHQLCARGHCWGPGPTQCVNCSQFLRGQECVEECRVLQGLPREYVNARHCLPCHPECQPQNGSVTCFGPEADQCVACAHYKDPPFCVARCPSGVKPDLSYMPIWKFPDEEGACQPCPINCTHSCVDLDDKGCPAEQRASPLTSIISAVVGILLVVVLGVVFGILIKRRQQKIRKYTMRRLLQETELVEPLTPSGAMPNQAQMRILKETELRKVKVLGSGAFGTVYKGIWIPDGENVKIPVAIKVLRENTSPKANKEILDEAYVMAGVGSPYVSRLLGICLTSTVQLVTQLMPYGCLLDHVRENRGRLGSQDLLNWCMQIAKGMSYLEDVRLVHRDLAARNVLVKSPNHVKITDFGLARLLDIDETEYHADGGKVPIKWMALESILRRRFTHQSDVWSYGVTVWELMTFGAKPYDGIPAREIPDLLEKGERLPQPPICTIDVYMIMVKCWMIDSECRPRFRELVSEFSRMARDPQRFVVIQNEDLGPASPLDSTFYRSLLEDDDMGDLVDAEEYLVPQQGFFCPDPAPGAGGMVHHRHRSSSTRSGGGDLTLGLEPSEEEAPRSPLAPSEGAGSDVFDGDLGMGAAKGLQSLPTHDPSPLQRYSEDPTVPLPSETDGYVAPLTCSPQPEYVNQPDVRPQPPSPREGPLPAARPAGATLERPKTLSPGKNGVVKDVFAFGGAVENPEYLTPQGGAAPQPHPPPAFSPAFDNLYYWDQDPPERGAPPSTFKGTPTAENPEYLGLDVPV

O=C(NO)[C@H]1CC2(CC2)CN[C@@H]1C(=O)N1CC=C(c2ccccc2)CC1
IC50 [1]: 3900 nM
fraction unbound [2]: 0.4
IC50 [3]: 113 nM
IC50 [4]: 1200 nM
IC50 [5]: 5 nM
Cmax [6]: 0.58 µM
clearance [7]: 15 mL/min/kg
AUC(0-t) at 24 h [8]: 0.35 µM·h

Cc1cc([N+](=O)[O-])ccc1C1=CCN(C(=O)[C@H]2NCC3(CC3)C[C@@H]2C(=O)NO)CC1
IC50 [1]: > 5000 nM
IC50 [3]: > 5000 nM
IC50 [4]: > 5000 nM
IC50 [5]: > 5000 nM
IC50 [9]: 130 nM

O=C(NO)[C@H]1CCCN[C@@H]1C(=O)N1CC[C@H](c2ccccc2)C1
IC50 [9]: 480 nM

CC1=C(c2ccccc2)CCN(C(=O)[C@H]2NCC3(CC3)C[C@@H]2C(=O)NO)C1
IC50 [1]: > 5000 nM
IC50 [3]: > 5000 nM
IC50 [4]: > 5000 nM
IC50 [5]: > 5000 nM
IC50 [9]: 720 nM

Cc1cc([N+](=O)[O-])ccc1N1CCN(C(=O)[C@H]2NCC3(CC3)C[C@@H]2C(=O)NO)CC1
IC50 [1]: > 5000 nM
IC50 [3]: > 5000 nM
IC50 [4]: > 1000 nM
IC50 [5]: > 1000 nM
IC50 [9]: 110 nM

Cc1ccccc1N1CCN(C(=O)[C@H]2NCC3(CC3)C[C@@H]2C(=O)NO)CC1
IC50 [1]: > 5000 nM
IC50 [3]: > 5000 nM
IC50 [4]: > 5000 nM
IC50 [5]: > 5000 nM
IC50 [9]: > 5000 nM
Activity [10]: inactive

O=C(NO)[C@H]1CC2(CC2)CN[C@@H]1C(=O)N1CC[C@H](c2ccccc2)C1
IC50 [1]: > 5000 nM
IC50 [3]: > 3000 nM
IC50 [4]: > 3000 nM
IC50 [5]: 960 nM

COC(=O)N1CC2(CC2)C[C@H](C(=O)NO)[C@H]1C(=O)N1CC=C(c2ccccc2)CC1
IC50 [1]: > 5000 nM
fraction unbound [2]: 0.7
IC50 [3]: 428 nM
IC50 [4]: 4000 nM
IC50 [5]: 39 nM
Cmax [6]: 7.7 µM
clearance [7]: 6.67 mL/min/kg
AUC(0-t) at 24 h [8]: 3.9 µM·h

O=C(NO)[C@H]1CC2(CC2)CN[C@@H]1C(=O)N1CCC(c2ccccc2)CC1
IC50 [1]: > 5000 nM
IC50 [3]: > 5000 nM
IC50 [4]: > 5000 nM
IC50 [5]: 450 nM
IC50 [9]: 320 nM

CN1CC2(CC2)C[C@H](C(=O)NO)[C@H]1C(=O)N1CC=C(c2ccccc2)CC1
IC50 [1]: > 5000 nM
IC50 [3]: > 5000 nM
IC50 [4]: > 1000 nM
IC50 [5]: 64 nM
IC50 [9]: 77 nM

O=C(NO)[C@H]1CC2(CC2)CN[C@@H]1C(=O)N1CCN(c2ccccc2)CC1
IC50 [1]: > 5000 nM
IC50 [3]: 650 nM
IC50 [4]: > 5000 nM
IC50 [5]: 200 nM

CCC(C)NC(=O)[C@@H]1[C@@H](C(=O)NO)CC2(CC2)CN1C (stereo partly specified)
IC50 [1]: > 5000 nM
IC50 [3]: > 5000 nM
IC50 [4]: > 1000 nM
IC50 [5]: > 1000 nM
Activity [10]: inactive

CN1CC2(CC2)C[C@H](C(=O)NO)[C@H]1C(=O)N1CCN(c2ccccc2)CC1
IC50 [1]: > 5000 nM
IC50 [3]: > 5000 nM
IC50 [4]: > 5000 nM
IC50 [5]: 150 nM
IC50 [9]: 310 nM

O=C(NO)[C@H]1CC2(CC2)CN[C@@H]1C(=O)N1CC=C(c2ccccc2)C1
IC50 [1]: 2500 nM
IC50 [3]: 77 nM
IC50 [4]: 450 nM
IC50 [5]: 13 nM
IC50 [9]: 23 nM

O=C(NO)[C@H]1CC2(CC2)CN[C@@H]1C(=O)N1CCN2c3ccccc3CC2C1 (stereo partly specified)
IC50 [1]: > 5000 nM
IC50 [3]: > 5000 nM
IC50 [4]: > 5000 nM
IC50 [5]: 350 nM
IC50 [9]: 330 nM
